Where two headings read alike, the source gives them in different places.
Tests used:
Experiment in all cases: Kinase panel study
Format in all cases: biochemical
Settings in all cases: for inhibition at 1 µM: 1000nM
AKT1 (PKB alpha) = molecular target: T1, AKT1 (PKB alpha) (Homo sapiens, UniProt P31749)
T1 construct: purchased Thermo Fisher Scientific
Procedure, shortened: (§1)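 Kinase inhibition was determined by a contract provider in cell-free ZLyte or Adapta assays. Results are expressed as % inhibition at 10 or 1 µM.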

FLT3 = molecular target: T2, FLT3 (Homo sapiens, UniProt P36888)
T2 construct: purchased Thermo Fisher Scientific
T2 sequence (P36888 27-993): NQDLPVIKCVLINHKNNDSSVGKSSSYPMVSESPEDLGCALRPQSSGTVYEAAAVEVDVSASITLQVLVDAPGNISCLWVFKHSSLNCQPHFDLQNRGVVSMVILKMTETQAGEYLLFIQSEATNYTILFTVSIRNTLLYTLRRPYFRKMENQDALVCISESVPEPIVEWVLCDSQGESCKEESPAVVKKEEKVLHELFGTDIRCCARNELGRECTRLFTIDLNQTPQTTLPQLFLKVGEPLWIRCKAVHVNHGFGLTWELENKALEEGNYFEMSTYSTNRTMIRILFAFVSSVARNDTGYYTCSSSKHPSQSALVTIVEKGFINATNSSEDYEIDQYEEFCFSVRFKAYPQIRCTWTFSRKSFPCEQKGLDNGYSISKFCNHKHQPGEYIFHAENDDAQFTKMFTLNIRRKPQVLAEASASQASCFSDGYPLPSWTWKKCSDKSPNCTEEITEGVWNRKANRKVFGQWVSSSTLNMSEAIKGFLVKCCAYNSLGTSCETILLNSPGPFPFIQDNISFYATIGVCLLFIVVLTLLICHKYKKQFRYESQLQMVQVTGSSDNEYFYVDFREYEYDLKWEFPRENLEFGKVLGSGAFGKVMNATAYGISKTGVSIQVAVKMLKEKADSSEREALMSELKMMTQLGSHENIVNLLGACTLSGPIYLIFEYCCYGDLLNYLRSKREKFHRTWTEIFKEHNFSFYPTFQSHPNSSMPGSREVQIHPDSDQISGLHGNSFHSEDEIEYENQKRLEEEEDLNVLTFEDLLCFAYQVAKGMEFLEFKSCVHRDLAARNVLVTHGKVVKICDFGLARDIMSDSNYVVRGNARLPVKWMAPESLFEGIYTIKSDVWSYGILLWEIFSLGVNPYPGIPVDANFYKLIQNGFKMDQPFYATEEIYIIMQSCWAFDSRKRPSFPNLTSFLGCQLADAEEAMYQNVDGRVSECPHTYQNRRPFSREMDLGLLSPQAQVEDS
Procedure, shortened: as §1

FRAP1 (mTOR) = molecular target: T3, FRAP1 (mTOR) (Homo sapiens, UniProt P42345)
T3 construct: purchased Thermo Fisher Scientific
Procedure, shortened: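 ZLyte/Adapta biochemical kinase assays, standard operating procedures; % inhibition at 1 µM or 10 µM test compound; IC50 determined in panel.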

IKBKB (IKK beta) = molecular target: T4, IKBKB (IKK beta) (Homo sapiens, UniProt O14920)
T4 construct: purchased Thermo Fisher Scientific
T4 sequence (O14920 1-756): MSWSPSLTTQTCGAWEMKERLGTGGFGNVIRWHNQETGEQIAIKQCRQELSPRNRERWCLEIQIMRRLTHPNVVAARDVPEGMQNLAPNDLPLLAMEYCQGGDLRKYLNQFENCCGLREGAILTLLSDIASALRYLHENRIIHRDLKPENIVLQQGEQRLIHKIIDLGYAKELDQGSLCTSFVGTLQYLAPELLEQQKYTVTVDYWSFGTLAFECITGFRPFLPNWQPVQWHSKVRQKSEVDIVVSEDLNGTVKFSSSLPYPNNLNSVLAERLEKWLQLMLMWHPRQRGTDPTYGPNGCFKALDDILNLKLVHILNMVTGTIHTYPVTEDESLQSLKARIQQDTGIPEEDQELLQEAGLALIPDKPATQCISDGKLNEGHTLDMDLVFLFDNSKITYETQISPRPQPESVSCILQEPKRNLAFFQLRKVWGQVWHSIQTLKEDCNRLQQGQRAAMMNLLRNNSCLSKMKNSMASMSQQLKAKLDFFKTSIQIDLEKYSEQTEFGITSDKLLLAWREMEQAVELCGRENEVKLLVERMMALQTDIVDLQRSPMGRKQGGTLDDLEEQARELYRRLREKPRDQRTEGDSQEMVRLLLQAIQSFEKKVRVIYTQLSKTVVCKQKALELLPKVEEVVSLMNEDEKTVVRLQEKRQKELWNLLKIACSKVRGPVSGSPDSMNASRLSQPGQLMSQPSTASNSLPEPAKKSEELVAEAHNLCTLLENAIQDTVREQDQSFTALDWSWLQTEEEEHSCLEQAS
Procedure, shortened: as §1

PI4K2B (PI4K2 beta) = molecular target: T5, PI4K2B (PI4K2 beta) (Homo sapiens, UniProt Q8TCG2)
T5 construct: purchased Thermo Fisher Scientific
Procedure, shortened: as §1

[1] = molecular target: T6, PIK3CD/PIK3R1 (p11 0 delta/p85 alpha) (Homo sapiens, UniProt O00329)
T6 construct: purchased Thermo Fisher Scientific
Procedure, shortened: as §1

[2] = read-out: Percentage of inhibition
[3] = 10000nM, read-out: Percentage of inhibition
[4] = AKT1 (PKB alpha), compound at 10µM, read-out: % of Inhibition
[5] = FLT3, compound at 10µM, read-out: % of Inhibition
[6] = FRAP1 (mTOR), compound at 10µM, read-out: % of Inhibition
[7] = IKBKB (IKK beta), compound at 10µM, read-out: % of Inhibition
[8] = PI4K2B (PI4K2 beta), compound at 10µM, read-out: % of Inhibition
[9] = PIK3CD/PIK3R1, compound at 10µM, read-out: % of Inhibition

T1 sequence (P31749 whole entry): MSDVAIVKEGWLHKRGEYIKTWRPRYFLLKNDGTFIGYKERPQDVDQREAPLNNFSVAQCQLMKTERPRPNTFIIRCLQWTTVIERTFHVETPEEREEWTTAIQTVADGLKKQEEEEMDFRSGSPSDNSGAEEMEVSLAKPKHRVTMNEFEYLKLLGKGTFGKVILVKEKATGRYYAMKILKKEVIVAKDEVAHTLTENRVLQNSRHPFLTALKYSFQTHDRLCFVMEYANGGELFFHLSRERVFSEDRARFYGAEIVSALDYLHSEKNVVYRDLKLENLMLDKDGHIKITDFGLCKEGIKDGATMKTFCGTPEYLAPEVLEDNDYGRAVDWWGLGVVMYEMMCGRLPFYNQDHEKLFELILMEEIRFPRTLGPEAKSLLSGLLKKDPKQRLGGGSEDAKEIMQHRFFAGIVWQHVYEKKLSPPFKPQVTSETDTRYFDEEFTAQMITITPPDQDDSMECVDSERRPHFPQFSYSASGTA
T6 sequence (O00329 whole entry): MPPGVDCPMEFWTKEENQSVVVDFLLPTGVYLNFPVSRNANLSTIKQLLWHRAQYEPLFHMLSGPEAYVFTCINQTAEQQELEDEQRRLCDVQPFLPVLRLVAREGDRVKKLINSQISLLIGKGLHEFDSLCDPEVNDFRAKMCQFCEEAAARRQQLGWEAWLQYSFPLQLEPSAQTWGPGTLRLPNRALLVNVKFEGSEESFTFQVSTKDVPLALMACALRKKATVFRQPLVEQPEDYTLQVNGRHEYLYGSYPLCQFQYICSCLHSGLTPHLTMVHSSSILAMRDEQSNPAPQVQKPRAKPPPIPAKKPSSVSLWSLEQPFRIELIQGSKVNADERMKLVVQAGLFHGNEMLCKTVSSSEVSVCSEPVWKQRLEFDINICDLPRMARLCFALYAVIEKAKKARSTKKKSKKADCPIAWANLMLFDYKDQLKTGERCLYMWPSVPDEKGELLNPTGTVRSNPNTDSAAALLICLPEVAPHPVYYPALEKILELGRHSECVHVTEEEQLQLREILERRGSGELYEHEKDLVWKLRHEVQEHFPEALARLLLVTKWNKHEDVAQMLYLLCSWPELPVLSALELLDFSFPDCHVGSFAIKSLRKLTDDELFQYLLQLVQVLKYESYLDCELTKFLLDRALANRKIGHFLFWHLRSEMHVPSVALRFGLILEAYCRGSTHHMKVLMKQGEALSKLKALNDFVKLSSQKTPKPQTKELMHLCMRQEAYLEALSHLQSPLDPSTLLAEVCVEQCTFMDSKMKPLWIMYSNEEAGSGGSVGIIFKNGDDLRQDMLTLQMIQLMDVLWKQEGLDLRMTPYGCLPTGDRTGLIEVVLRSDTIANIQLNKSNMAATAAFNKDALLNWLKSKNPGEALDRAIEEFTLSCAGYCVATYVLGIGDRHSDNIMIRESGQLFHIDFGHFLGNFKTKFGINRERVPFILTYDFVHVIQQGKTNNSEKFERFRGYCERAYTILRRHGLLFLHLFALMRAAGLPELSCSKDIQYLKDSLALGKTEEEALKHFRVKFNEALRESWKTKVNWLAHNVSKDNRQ
T6 sequence (P27986 whole entry partner): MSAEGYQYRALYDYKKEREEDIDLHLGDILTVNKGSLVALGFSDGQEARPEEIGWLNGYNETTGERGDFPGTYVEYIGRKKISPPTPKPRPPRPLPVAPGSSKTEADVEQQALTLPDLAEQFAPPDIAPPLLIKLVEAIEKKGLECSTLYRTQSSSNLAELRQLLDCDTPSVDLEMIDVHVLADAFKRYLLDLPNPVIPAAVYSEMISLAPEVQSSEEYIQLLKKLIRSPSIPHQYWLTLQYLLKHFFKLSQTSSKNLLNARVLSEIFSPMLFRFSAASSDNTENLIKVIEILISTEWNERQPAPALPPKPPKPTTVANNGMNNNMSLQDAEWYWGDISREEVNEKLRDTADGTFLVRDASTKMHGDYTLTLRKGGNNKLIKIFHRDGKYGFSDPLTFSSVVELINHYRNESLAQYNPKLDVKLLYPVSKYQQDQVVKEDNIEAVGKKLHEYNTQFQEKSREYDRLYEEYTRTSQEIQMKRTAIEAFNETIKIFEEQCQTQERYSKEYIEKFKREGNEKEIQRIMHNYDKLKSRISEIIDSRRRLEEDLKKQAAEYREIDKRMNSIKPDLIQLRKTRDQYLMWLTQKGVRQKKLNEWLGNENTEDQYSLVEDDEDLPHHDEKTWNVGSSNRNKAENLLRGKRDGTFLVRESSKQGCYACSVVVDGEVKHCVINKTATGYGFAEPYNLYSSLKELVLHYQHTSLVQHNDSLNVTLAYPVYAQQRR
T5 sequence (Q8TCG2 whole entry): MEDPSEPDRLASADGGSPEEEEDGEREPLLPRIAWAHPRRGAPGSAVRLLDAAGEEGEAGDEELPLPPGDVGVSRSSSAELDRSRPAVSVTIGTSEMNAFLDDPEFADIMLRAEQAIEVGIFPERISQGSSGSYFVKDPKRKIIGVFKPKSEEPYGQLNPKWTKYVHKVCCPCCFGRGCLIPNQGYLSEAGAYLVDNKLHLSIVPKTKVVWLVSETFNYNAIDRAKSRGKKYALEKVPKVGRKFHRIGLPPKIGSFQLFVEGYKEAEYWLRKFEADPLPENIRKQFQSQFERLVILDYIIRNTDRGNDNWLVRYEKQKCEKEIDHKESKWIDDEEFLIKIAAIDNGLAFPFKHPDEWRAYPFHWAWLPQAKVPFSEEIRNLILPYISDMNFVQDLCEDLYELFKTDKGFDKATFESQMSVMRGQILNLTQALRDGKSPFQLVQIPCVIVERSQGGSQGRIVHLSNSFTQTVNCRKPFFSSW

| inhibition at 10 µM (AKT1 (PKB alpha); [4]) [%] | inhibition at 10 µM (FLT3; [5]) [%] | inhibition at 10 µM (FRAP1 (mTOR); [6]) [%] | inhibition at 10 µM (IKBKB (IKK beta); [7]) [%] | inhibition at 10 µM (PI4K2B (PI4K2 beta); [8]) [%] | inhibition at 10 µM [1, 9] [%] | SMILES | inhibition at 1 µM (AKT1 (PKB alpha); [2]) [%] | inhibition at 10 µM (AKT1 (PKB alpha); [3]) [%] | inhibition at 1 µM (FLT3; [2]) [%] | inhibition at 10 µM (FLT3; [3]) [%] | inhibition at 1 µM (FRAP1 (mTOR); [2]) [%] | inhibition at 10 µM (FRAP1 (mTOR); [3]) [%] | inhibition at 1 µM (IKBKB (IKK beta); [2]) [%] | inhibition at 10 µM (IKBKB (IKK beta); [3]) [%] | inhibition at 1 µM (PI4K2B (PI4K2 beta); [2]) [%] | inhibition at 10 µM (PI4K2B (PI4K2 beta); [3]) [%] | inhibition at 1 µM [1, 2] [%] | inhibition at 10 µM [1, 3] [%] | IC50 (FRAP1 (mTOR); in vitro kinase panel, sub-2000 nM criterion) [nM] |
| --- | --- | --- | --- | --- | --- | --- | --- | --- | --- | --- | --- | --- | --- | --- | --- | --- | --- | --- | --- |
|  |  |  |  |  |  | COc1ccc2cc3c(N)nn(C(=O)c4cccc(N(C)C)c4)c3nc2c1 [MW05, (3-Amino-7-methoxypyrazolo[3,4-b]quinolin-1-yl)-[3-(dimethylamino)phenyl]methanone] | 3 | 3 | 2 | 6 | 31 | 81 | 6 | 5 | 9 | 0 | 40 | 77 |  |
| 12 | 65 | 43 | 16 | 24 | 77 | O=c1c2cnccc2c2nccc3c4cc(O)ccc4n1c32 [MW01-E18, 5-hydroxy-1,11,16-triazapentacyclo[10.7.1.0^2,^7.0^8,^20.0^13,^18]icosa-2(7),3,5,8(20),9,11,13(18),14,16-nonaen-19-one] |  |  |  |  |  |  |  |  |  |  |  |  |  |
| 18 | 27 | 42 | 31 | 22 | 87 | O=c1c2cc(O)ccc2c2nccc3c4cc(O)ccc4n1c32 [MW01-E10, 5,16-dihydroxy-1,11-diazapentacyclo[10.7.1.0^2,^7.0^8,^20.0^13,^18]icosa-2(7),3,5,8(20),9,11,13(18),14,16-nonaen-19-one] |  |  |  |  |  |  |  |  |  |  |  |  |  |
| 9 | 12 | 26 | 16 | 21 | 84 | COc1ccc2c(c1)c1ccnc3c4ccnc(OC)c4c(=O)n2c13 [MW01-E14, 5,17-dimethoxy-1,11,16-triazapentacyclo[10.7.1.0^2,^7.0^8,^20.0^13,^18]icosa-2(7),3,5,8(20),9,11,13(18),14,16-nonaen-19-one] |  |  |  |  |  |  |  |  |  |  |  |  |  |
|  |  |  |  |  |  | COc1ccc2c(c1OC)c(=O)n1c3ccc(O)cc3c3ccnc2c31 [MW01, 5-Hydroxy-10,11-dimethoxy-9H-benzo[c]indolo[3,2,1-ij][1,5]naphthyridin-9-one] | 5 | 10 | 61 | 86 | 31 | 80 | 4 | 12 | 3 | 20 | 79 | 89 | ≥ 2000 |
| 6 | 31 | 12 | 10 | 11 | 34 | COc1ccc2c(c1)c1ccnc3c4nc(OC)ccc4c(=O)n2c13 [MW01-E6, 5,15-dimethoxy-1,11,14-triazapentacyclo[10.7.1,0^2,7.0^8,^20.0^13,^18]icosa-2(7),3,5,8(20),9,11,13(18),14,16-nonaen-19-one] |  |  |  |  |  |  |  |  |  |  |  |  |  |
| 9 | 17 | 5 | 12 | 8 | 28 | COc1ccc2nc3c(cc2c1)c(N)nn3C(=O)c1cccc(N(C)C)c1 [MW05-E2, 1-[3-(dimethylamino)benzoyl]-6-methoxy-1H-pyrazolo[3,4-b]quinolin-3-amine] |  |  |  |  |  |  |  |  |  |  |  |  |  |
